Laboratory results published in article PMC10986521 (Microbiology Spectrum, 2024).

Tests used:
in vitro = settings: human
FMDV 3Cpro [1] = target: T1, FMDV 3Cpro (Foot-and-mouth disease virus A, UniProt A0A097I315); experiment: biochemical; parameters: species or system FMDV A/IND287/96 strain (serotype A); settings: FRET assay (IC50)
FMDV 3Cpro [2] = target: T1, FMDV 3Cpro; experiment: cell-based; parameters: species or system FMDV A/IND287/96 strain; settings: Cell-based assay (EC50)

Structure (SMILES) | CC50 (in vitro) [nM] | IC50 (FMDV 3Cpro [1]) [nM] | EC50 (FMDV 3Cpro [2]) [nM]
CC(C)C[C@H](NC(=O)OC[C@@H]1C[C@H]1c1ccccc1)C(=O)N[C@H](C=O)C[C@H]1CCNC1=O [Compound C1c] | > 50000 | 1000 ± 280 | 3150 ± 350
CC(C)C[C@H](NC(=O)OC[C@@H]1C[C@H]1c1ccccc1)C(=O)N[C@@H](C[C@H]1CCNC1=O)C(O)S(=O)(=O)O (some centres unmarked) [Compound C1d] | > 50000 | 750 ± 70 | 3250 ± 630
CC(C)C[C@H](NC(=O)OC[C@H]1[C@H](c2ccccc2)C1(F)F)C(=O)N[C@H](C=O)C[C@H]1CCNC1=O [Compound C2c] | > 50000 | 1350 ± 640 | 1200 ± 140
CC(C)C[C@H](NC(=O)OC[C@H]1[C@H](c2ccccc2)C1(F)F)C(=O)N[C@@H](C[C@H]1CCNC1=O)C(O)S(=O)(=O)O (some centres unmarked) [Compound C2d] | > 50000 | 1100 ± 570 | 1450 ± 210
CC(C)C[C@H](NC(=O)OC[C@@H]1C[C@H]1Cc1ccccc1)C(=O)N[C@H](C=O)C[C@H]1CCNC1=O [Compound C3c] | > 50000 | 690 ± 130 | 2740 ± 2140
CC(C)C[C@H](NC(=O)OC[C@@H]1C[C@H]1Cc1ccccc1)C(=O)N[C@@H](C[C@H]1CCNC1=O)C(O)S(=O)(=O)O (some centres unmarked) [Compound C3d] | > 50000 | 800 ± 140 | 4020 ± 300
CC(C)C[C@H](NC(=O)OC[C@H]1[C@H](Cc2ccccc2)C1(F)F)C(=O)N[C@H](C=O)C[C@H]1CCNC1=O [Compound C4c] | > 50000 | 820 ± 150 | –
CC(C)C[C@H](NC(=O)OC[C@H]1[C@H](Cc2ccccc2)C1(F)F)C(=O)N[C@@H](C[C@H]1CCNC1=O)C(O)S(=O)(=O)O (some centres unmarked) [Compound C4d] | > 50000 | 1350 ± 350 | 3650 ± 630
CC(C)C[C@H](NC(=O)OC[C@@H]1C[C@H]1c1cccc(F)c1)C(=O)N[C@H](C=O)C[C@H]1CCNC1=O [Compound C5c] | > 50000 | 1050 ± 210 | 2130 ± 490
CC(C)C[C@H](NC(=O)OC[C@@H]1C[C@H]1c1cccc(F)c1)C(=O)N[C@@H](C[C@H]1CCNC1=O)C(O)S(=O)(=O)O (some centres unmarked) [Compound C5d] | > 50000 | 950 ± 220 | 1890 ± 90
CC(C)C[C@H](NC(=O)OC[C@@H]1C[C@H]1c1cccc(Cl)c1)C(=O)N[C@H](C=O)C[C@H]1CCNC1=O [Compound C6c] | > 50000 | 800 ± 50 | 3300 ± 710
CC(C)C[C@H](NC(=O)OC[C@@H]1C[C@H]1c1cccc(Cl)c1)C(=O)N[C@@H](C[C@H]1CCNC1=O)C(O)S(=O)(=O)O (some centres unmarked) [Compound C6d] | > 50000 | 580 ± 110 | 2850 ± 490
CC(C)C[C@H](NC(=O)OC[C@@H]1C[C@H]1c1ccc(F)cc1)C(=O)N[C@H](C=O)C[C@H]1CCNC1=O [Compound C7c] | > 50000 | 590 ± 40 | 2000 ± 140
CC(C)C[C@H](NC(=O)OC[C@@H]1C[C@H]1c1ccc(F)cc1)C(=O)N[C@@H](C[C@H]1CCNC1=O)C(O)S(=O)(=O)O (some centres unmarked) [Compound C7d] | > 50000 | 750 ± 70 | 2150 ± 350
CC(C)C[C@H](NC(=O)OC[C@@H]1C[C@H]1c1ccc(Cl)cc1)C(=O)N[C@H](C=O)C[C@H]1CCNC1=O [Compound C8c] | > 50000 | 1150 ± 80 | –
CC(C)C[C@H](NC(=O)OC[C@@H]1C[C@H]1c1ccc(Cl)cc1)C(=O)N[C@@H](C[C@H]1CCNC1=O)C(O)S(=O)(=O)O (some centres unmarked) [Compound C8d] | > 50000 | 550 ± 70 | –
COc1cccc([C@@H]2C[C@H]2COC(=O)N[C@@H](CC(C)C)C(=O)N[C@H](C=O)C[C@H]2CCNC2=O)c1 [Compound C9c] | > 50000 | 750 ± 140 | 2950 ± 280
COc1cccc([C@@H]2C[C@H]2COC(=O)N[C@@H](CC(C)C)C(=O)N[C@@H](C[C@H]2CCNC2=O)C(O)S(=O)(=O)O)c1 (some centres unmarked) [Compound C9d] | > 50000 | 840 ± 60 | 2050 ± 640

Structure (SMILES) | CC50 (in vitro) [nM] | IC50 (FMDV 3Cpro [1]) [nM] | EC50 (FMDV 3Cpro [2]) [nM]
COc1ccc([C@@H]2C[C@H]2COC(=O)N[C@@H](CC(C)C)C(=O)N[C@H](C=O)C[C@H]2CCNC2=O)cc1 [Compound C10c] | > 50000 | 1250 ± 70 | 3650 ± 1480
COc1ccc([C@@H]2C[C@H]2COC(=O)N[C@@H](CC(C)C)C(=O)N[C@@H](C[C@H]2CCNC2=O)C(O)S(=O)(=O)O)cc1 (some centres unmarked) [Compound C10d] | > 50000 | 1050 ± 210 | 2850 ± 1550
COc1ccccc1[C@@H]1C[C@H]1COC(=O)N[C@@H](CC(C)C)C(=O)N[C@H](C=O)C[C@H]1CCNC1=O [Compound C11c] | > 50000 | 950 ± 210 | 1080 ± 50
COc1ccccc1[C@@H]1C[C@H]1COC(=O)N[C@@H](CC(C)C)C(=O)N[C@@H](C[C@H]1CCNC1=O)C(O)S(=O)(=O)O (some centres unmarked) [Compound C11d] | > 50000 | 450 ± 130 | 1020 ± 170
COc1ccccc1[C@@H]1C[C@@H]1COC(=O)N[C@@H](CC(C)C)C(=O)N[C@H](C=O)C[C@H]1CCNC1=O [Compound C12c] | > 50000 | 500 ± 140 | 880 ± 250
COc1ccccc1[C@@H]1C[C@@H]1COC(=O)N[C@@H](CC(C)C)C(=O)N[C@@H](C[C@H]1CCNC1=O)C(O)S(=O)(=O)O (some centres unmarked) [Compound C12d] | > 50000 | 510 ± 60 | 1250 ± 70
CCC[C@@H]1C[C@H]1COC(=O)N[C@@H](CC(C)C)C(=O)N[C@H](C=O)C[C@H]1CCNC1=O [Compound C13c] | > 50000 | 1550 ± 70 | 2950 ± 210
CCC[C@@H]1C[C@H]1COC(=O)N[C@@H](CC(C)C)C(=O)N[C@@H](C[C@H]1CCNC1=O)C(O)S(=O)(=O)O (some centres unmarked) [Compound C13d] | > 50000 | 750 ± 70 | 3100 ± 420
CCC[C@@H]1C[C@@H]1COC(=O)N[C@@H](CC(C)C)C(=O)N[C@H](C=O)C[C@H]1CCNC1=O [Compound C14c] | > 50000 | 630 ± 100 | 7050 ± 780
CCC[C@@H]1C[C@@H]1COC(=O)N[C@@H](CC(C)C)C(=O)N[C@@H](C[C@H]1CCNC1=O)C(O)S(=O)(=O)O (some centres unmarked) [Compound C14d] | > 50000 | 1050 ± 640 | 6300 ± 850
CC(C)C[C@H](NC(=O)OCC(C)(C)Sc1cccc(F)c1)C(=O)N[C@@H](C[C@@H]1CCNC1=O)C(O)S(=O)(=O)O (some centres unmarked) [Compound D5d] | > 50000 | 810 ± 70 | –
CC(C)C[C@H](NC(=O)OCC(C)(C)Oc1ccccc1)C(=O)N[C@H](C=O)C[C@@H]1CCNC1=O [Compound D10c] | > 50000 | 740 ± 80 | –
CC(C)C[C@H](NC(=O)OCC(C)(C)Oc1ccccc1)C(=O)N[C@@H](C[C@@H]1CCNC1=O)C(O)S(=O)(=O)O (some centres unmarked) [Compound D10d] | > 50000 | 700 ± 280 | –
CC(C)C[C@H](NC(=O)OCC(C)(O)c1cccc(Cl)c1)C(=O)N[C@H](C=O)C[C@@H]1CCNC1=O (some centres unmarked) [Compound D17c] | > 50000 | 2000 ± 710 | –
CC(C)C[C@H](NC(=O)OCC(C)(O)c1cccc(Cl)c1)C(=O)N[C@@H](C[C@@H]1CCNC1=O)C(O)S(=O)(=O)O (some centres unmarked) [Compound D17d] | > 50000 | 900 ± 280 | –
CC(C)C[C@H](NC(=O)OCc1ccccc1)C(=O)N[C@@H](C[C@@H]1CCNC1=O)C(=O)C(=O)NC(C)C [Compound E6a] | > 50000 | 3900 ± 200 | –
CC(C)C[C@H](NC(=O)OCc1ccccc1)C(=O)N[C@@H](C[C@@H]1CCNC1=O)C(=O)C(=O)NC1CCCCC1 [Compound E6e] | > 50000 | 2800 ± 100 | –
